# Assay: gradient 5% acetonitrile 3 min, to 50% in 2 min, to 85% in 15 min, held 3 min, 100 µL/min
# Details: column: Zorbax Extend-C18 2.1 x 50 mm; eluents: water / acetonitrile, 0.1% formic acid
# Method in brief: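 Values are retention times taken from adduct peaks that software picked and an analyst inspected. The pure standards were run as mixtures of ~100 molecules on HPLC linked to a quadrupole time-of-flight mass spectrometer, in positive and negative ionization mode. A Zorbax Extend-C18 column (2.1 × 50 mm, 1.8 μm) was used at 100 μL/min with water and acetonitrile, each including 0.1% formic acid.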
row,Compound,RP-LC retention time
1,COc1ccc(CNC(=O)C2CCN(S(=O)(=O)c3cc(-c4noc(C)n4)cs3)CC2)cc1,831 s
2,CC(C)Cn1nc(CNC(=O)c2ccsc2)c2ccccc21,882 s
3,COCCOCC(=O)N1CC(Oc2ccc(-c3nc(C)no3)cc2)C1,679 s
4,Cc1[nH]c(=O)[nH]c(=O)c1CC(=O)Nc1cccc(NS(C)(=O)=O)c1,549 s
5,CCn1cc(CCNC(=O)Nc2cc(F)c(F)c(F)c2)c2cccnc21,820 s
6,CCC(C(=O)Nc1ccc(Cl)cc1)n1cnc2nc3c(cc2c1=O)CCCC3 (stereo not drawn),878 s
7,Cc1c(C(=O)N2CCOCC2)cnn1-c1ccc(-c2nc(C3CC3)no2)cn1,778 s
8,COc1ccc(-c2nc(-c3cn(Cc4ccc(F)cc4)nn3)no2)c(OC)c1,940 s
9,CCCN1CCC[C@H](c2cccc(O)c2)C1,588 s
10,CCN1C(=O)CCc2cc(NC(=O)c3ccn(CC)n3)ccc21,701 s
11,O=C(CSc1nnc(-c2cccc(Cl)c2)o1)Nc1ccc(C(F)(F)F)cc1,1050 s
12,Cc1nnc2c(=O)n(CC(=O)NCc3ccc(Cl)cc3)c3cccnc3n12,703 s
13,Cc1nn(-c2ccc(-c3ccccc3)nn2)c(C)c1S(=O)(=O)NCc1ccc(F)cc1,988 s
14,FC(F)(F)c1cccc(-c2ccc(CNCC3CCNCC3)o2)c1,580 s
15,Cc1csc(C(=O)Nc2nnc(SCC(=O)Nc3cccnc3)s2)c1,597 s
16,CN(CCNC(=O)C1CCCN(c2ncnc3c2nc2n3CCCCC2)C1)Cc1ccccc1 (stereo not drawn),623 s
17,Cn1c(=O)n([C@H]2CCN(C(=O)C3(c4ccccc4)CC3)C2)c2ncccc21,733 s

row,Compound,RP-LC retention time
1,Cn1c(=O)c(=O)n(C)c2cc(NC(=O)c3cccs3)ccc21,653 s
2,Cc1ccccc1NS(=O)(=O)c1ccc2c(c1)C(=O)N(C)c1ncccc1O2,892 s
3,O=C(Nc1ccc2ncsc2c1)c1sc2ccccc2c1Cl,997 s
4,CC(C)n1cnc(S(=O)(=O)N2CCCC(C(=O)N3CCN(c4ccccn4)CC3)C2)c1 (stereo not drawn),581 s
5,COc1ccc(C2Cn3cnc(C(=O)N4CCC(C(=O)NCCc5cccs5)CC4)c3CO2)cc1 (stereo not drawn),691 s
6,Cc1oc2ccn(Cc3ccc(F)cc3)c(=O)c2c1C(=O)NCc1cccs1,1030 s
7,CCN(CCCNC(=O)CCc1nnc2ccc(-c3ccccc3)nn12)c1ccccc1,654 s
8,Cc1nc(-c2csc(S(=O)(=O)N3CCC(C(=O)N4CCN(C)CC4)CC3)c2)no1,616 s
9,CCOCc1cc(OC)c(-c2ccc(C[C@H](NC(=O)c3c(F)cccc3F)C(=O)O)cc2)c(OC)c1,1020 s
10,Cc1ccc2c(C(=O)NCCc3cccs3)cc(NC(=O)C(C)C)cc2n1,643 s
11,CN1CCCN(C(=O)COc2ccc(Cl)cc2)c2ccccc21,960 s
12,CCOc1ccc(C(=O)c2ccc(Cl)c(N)c2)cc1,935 s
13,CC(C)N1C(=O)C(C)(C(=O)NCc2ccccc2Cl)Oc2cccnc21 (stereo not drawn),974 s
14,CCCNC(=O)C1CCCN(c2nc3ncn(CC(=O)Nc4cc(C)ccc4C)c(=O)c3s2)C1 (stereo not drawn),703 s
15,O=C(c1ccn[nH]1)N1C[C@@H]2C(=O)N(CCc3ccccc3)C(=O)[C@@H]2C1,656 s
16,Cc1cnc(CCNC(=O)Nc2ccc3c(c2)OCCO3)n1C1CCC1,517 s

# Reference: the METLIN SMRT retention time set (Domingo-Almenara et al. 2019)
